Test results from patent publication US5616604A, “Aminopyrrolizinone analogues for anti-inflammation and analgesia (II)” (priority 1996, dated 1997).

How the values were obtained:
[1] = tested on: carrageenin-induced paw edema; assay: inhibition of carrageenin-induced paw edema in rat; format: in vivo; conditions: oral, male rats, dose/LD50: SFZ-47 1/15, SFZ-58 1/10, ibuprofen 1/5, indomethacin 1/4; for carrageenin-induced paw edema, 1 hour: N.S. 0.40 ± 0.00; for carrageenin-induced paw edema, 2 hours: N.S. 0.78 ± 0.09; for carrageenin-induced paw edema, 3 hours: N.S. 0.75 ± 0.09; for carrageenin-induced paw edema, 4 hours: N.S. 0.75 ± 0.05; for carrageenin-induced paw edema, 5 hours: N.S. 0.76 ± 0.09
Protocol: The influence of SFZ-47, 58 on inhibition of Carrageenin-Induced Paw Edema in Rat.
The test agent was administered by oral liquid to male rats of weight 140-180 g. 0.05 ml of 1% carrageenin injected into the pad of the right hind paw 1 hour later. The perimeter of the rat ankles were measured each hour after compound administration.

gastric mucosa of rats = assay: effects on gastric mucosa of rats (ulcer index); format: in vivo, rat; conditions: n = 5, SFZ-47 400 mg/kg, SFZ-58 300 mg/kg, ibuprofen 200 mg/kg, indomethacin 10 mg/kg
Excerpt: Effects of SFZ-47 and SFZ-58 on gastric mucosa of rats

[2] = tested on: mouse writhing induced by acetic acid; assay: inhibition of acetic acid-induced writhe in mice; format: in vivo; conditions: oral, female mice, dose/LD50: SFZ-47 1/15, SFZ-58 1/10, ibuprofen 1/5, indomethacin 1/4; for Numb. of writhing (x ± SD): 0.7% acetic acid i.p. 1 h later, 20 min observation, N.S. 17.0 ± 6.8; for Rate of inhibition (%): writhing vs normal saline
Protocol: The influence of SFZ-47, 58 on inhibition of acetic acid-induces writhe.
SFZ-47 and SFZ-58 were suspended in 0.5% carboxymethylcellulose (CMC) and administered per os. to female mice of weight 18-24 g. 1 hour later, 0.2 ml of a 0.7% solution of acetic acid was injected to mouse by intraperironeally. The animals were observed during the next 20 min. for writhe.

splanchnic vascular bed = conditions: prior art, in words; cited from earlier work
cerebral circulation = conditions: prior art, cited from earlier work

SMILES | carrageenin-induced paw edema, 1 hour [1] | carrageenin-induced paw edema, 2 hours [1] | carrageenin-induced paw edema, 3 hours [1] | carrageenin-induced paw edema, 4 hours [1] | carrageenin-induced paw edema, 5 hours [1] | Ulcer index (gastric mucosa of rats) [mm^2] | Numb. of writhing (x ± SD) [2] | Rate of inhibition (%) [2] [%] | blood flow in the splanchnic vascular bed (splanchnic vascular bed) | cerebral blood flow response to hypercapnia (cerebral circulation; in words) | decrease of cerebral blood flow (cerebral circulation)
CC(C)Cc1ccc(C(C)C(=O)O)cc1 (stereo not shown) [Ibuprofen] | 0.29 ± 0.06 | 0.41 ± 0.11 | 0.52 ± 0.00 | 0.51 ± 0.00 | 0.47 ± 0.10 | 13.3 ± 4.2 | 4.3 ± 3.9 | 75 |  |  | 
COc1ccc2c(c1)c(CC(=O)O)c(C)n2C(=O)c1ccc(Cl)cc1 [Indomethacin] | 0.21 ± 0.18 | 0.33 ± 0.08 | 0.45 ± 0.08 | 0.43 ± 0.13 | 0.43 ± 0.13 | 14.0 ± 6.9 | 2.7 ± 1.5 | 84 | diminishes blood flow in the splanchnic vascular bed | abolishing cerebral blood flow response to hypercapnia | 25-35%
